Test results from BigSolDB 2.1.

Oc1ccccc1C=Nc1c(F)cccc1F
solubility (mole fraction)
Conditions | 273.15 K | 278.15 K | 283.15 K | 288.15 K | 293.15 K | 298.15 K | 303.15 K
in 1,2-dichloroethane | 0.105 | 0.122 | 0.142 | 0.164 | 0.193 | 0.234 | 0.277
in THF | 0.161 | 0.181 | 0.2 | 0.23 | 0.258 | 0.293 | 0.338
in acetonitrile | 0.0134 | 0.0191 | 0.0272 | 0.0389 | 0.0547 | 0.0768 | 0.106
in chloroform | 0.138 | 0.154 | 0.177 | 0.203 | 0.232 | 0.27 | 0.313
in dichloromethane | 0.122 | 0.139 | 0.161 | 0.185 | 0.218 | 0.252 | 0.295
in ethanol | 0.00496 | 0.00633 | 0.00819 | 0.0103 | 0.0128 | 0.0157 | 0.0192
in ethyl acetate | 0.0896 | 0.104 | 0.124 | 0.146 | 0.173 | 0.204 | 0.248
in isopropanol | 0.008 | 0.0095 | 0.0114 | 0.0136 | 0.0164 | 0.0195 | 0.0231
in methanol | 0.00299 | 0.00392 | 0.00512 | 0.00667 | 0.00873 | 0.0111 | 0.0141
in n-propanol | 0.00636 | 0.00779 | 0.00958 | 0.0118 | 0.0146 | 0.0177 | 0.0212
in toluene | 0.0871 | 0.105 | 0.126 | 0.149 | 0.176 | 0.213 | 0.251
